The test system of this assay is melanocortin receptor. Description: Melanocortin receptor modulation by ACTH1-39 (applicants' finding, no method given).

For “H-Ser-Tyr-Ser-Met-Glu-His-Phe-Arg-Trp-Gly-Lys-Pro-Val-Gly-Lys-Lys-Arg-Arg-Pro-Val-Lys-Val-Tyr-Pro-Asp-Gly-Ala-Glu-Asp-Gln-Leu-Ala-Glu-Ala-Phe-Pro-Leu-Glu-Phe-OH (H-SYSMEHFRWGKPVGKKRRPVKVYPDGAEDQLAEAFPLEF-OH) [ACTH1-39]”, the melanocortin receptor modulation entry is listed as “pan-melanocortin receptor modulator”.

For the origin of these results see patent publication US8796416B1, “ACTH prophylactic treatment of renal disorders” (Questcor Pharmaceuticals, Inc, priority 2010, dated 2014).
